Experimental findings from article PMC3664642, “A Peptide against Soluble Guanylyl Cyclase α1: A New Approach to Treating Prostate Cancer” (PLoS ONE, 2013) are described below.

The test system of test [1] is C81 cells. Put plainly: Proliferation/cytotoxicity, castration-resistant C81 cells (MTT). The class given is cell-based. Particulars: different concentrations; Fig. 3C; averages of three independent experiments; P<0.03 vs Vehicle. The protocol: (§1) LNCaP, C81, PC-3 and Cos cells were grown as previously described. CWR-22Rv1 cells were cultured in RMPI-1640 medium with 10% FBS and 50 µg/ml Gentamicin (Gibco). Control siRNA, sGCα1 siRNA and AKT siRNA (Dharmacon) at 50 nM final concentration was transfected into cells using Lipofectamine siMAX (Invitrogen).
(§2) For proliferation, cells were grown in medium containing 2% FBS extracted with dextran-coated charcoal (DCC). 48 hours later, ethanol or 1 nM R1881 was added to the cells followed by peptide treatment. The MTT assay (Sigma) was used as before to determine cell number. For apoptosis, 5000 cells were seeded in 96-well plates and treated with Vehicle (DMSO), Peptide A-8R (25 µM), Etoposide (50 µM) (Sigma) at different time points. The Caspase (3/7) activity was measured using Apo-ONE Homogeneous Caspase-3/7 assay kit (Promega). PARP cleavage was also used to measure apoptosis, and is described below.
(§3) Vehicle or different concentrations of Peptide A-8R or C-8R, as shown, was added to (A) hormone-dependent LNCaP cells grown in 2% serum without or with 1 nM R1881, (C) castration-resistant C81 or CWR-22Rv1 cells, or (E) sGCα1-deficient PC-3 or Cos cells. Cell number was measured after various days of incubation. Data points represent averages of three independent experiments plus standard deviations. […]

The test system of the next test is CWR-22Rv1 cells. Put plainly: Proliferation/cytotoxicity, castration-resistant CWR-22Rv1 cells (MTT). Particulars: different concentrations; Fig. 3C; averages of three independent experiments; P<0.03 vs Vehicle. It is filed as cell-based. The protocol:
as §1, §2, §3

A further test deals with PC-3 cells. Put plainly: Proliferation/cytotoxicity, sGCα1-deficient PC-3 cells (MTT). It is filed as cell-based. Particulars: different concentrations, Fig. 3E. As to the method: as §1, §2, §3
The test system of the next test is Cos cells. Description: Proliferation/cytotoxicity, sGCα1-deficient Cos cells (MTT). Particulars: different concentrations, Fig. 3E. The class given is cell-based, African green monkey. As to the method: as §1, §2, §3
The test system of another test is p53. Description: p53 activity and dependence. The class given is cell-based. Particulars: prostate cancer cells; data not shown.
Test [2] deals with C81 cells. Description: DAPI DNA staining, C81 cells. The class given is cell-based. Particulars: 50 µM Peptide A-8R, 1 hr, with or without 5 mM NAC, Fig. S6. The protocol: C81 cells were first treated with or without 5 mM NAC for 2 hrs and then Vehicle or different concentrations of Peptide A-8R, as shown, for 1 hr and stained with DAPI. Phase contrast images are shown. (TIF) Click here for additional data file.

Where no end group is shown, it is not given here.

Take Ac-TFCKAFPFHIIRRRRRRRR [Peptide A-8R]: the “suppression of growth of C81 cells” value in the test on C81 cells [1] was “very effective at suppressing the growth of C81 cells (Fig. 3C), matching the effect on hormone-dependent LNCaP cells”. Moreover, the “suppression of growth of CWR-22Rv1 cells” value in the test with CWR-22Rv1 cells is “also effective on another hormone-refractory prostate cancer cell line, CWR-22Rv1 cells”. Also, the “effect on PC-3 cells” value in the test on PC-3 cells is “little to no effect”. In addition, the “effect on Cos cells” value in the test with Cos cells is “little to no effect”. For the same substance, the “effect on p53 activity and p53 dependence of apoptosis” value with p53 is “does not disrupt p53 activity nor depend on endogenous p53 for inducing apoptosis”. Further, the “DAPI staining / effect on nuclei and DNA” value in the test on C81 cells [2] was “kills the cells and disrupts their nuclei and DNA such that DAPI staining yields no signal”.
